# Source: patent US10231933B2, “Enteric coated, soluble creatine and polyethylene glycol composition for enhanced skeletal uptake of oral creatine” (CRYXA LLC, priority 2007, dated 2019)
# Tests used:
# [1] = known; cited from earlier work
# [2] = Muscle biopsy (vastus lateralis) ATP, creatine phosphate and creatine concentrations pre- and post-supplementation; assay type: in vivo, human
# Procedure: The participants selected had the following characteristics:
# Pre and post muscle biopsies were obtained from the vastus lateralis muscle. Samples were immediately frozen in liquid nitrogen and stored at −80° C. for later analysis. The frozen samples were weighed to the nearest 0.1 mg, freeze dried for 8 hours and reweighed. The tissue samples were extracted and then analyzed for creatine, creatine phosphate, and ATP content via […].
# [3] = Blood chemistries pre- and post-supplementation; assay type: in vivo, human; design: ALT (SGPT): unit not given here
# [4] = male, human, blood, oral, 20 gm/day
# [5] = Post 5 days supplementation, muscle biopsy
# [6] = post-suppl., 5 days, control 20 gm/day, experimental 10 gm/day creatine equivalent
compound,measurement,setting,value
"CN(CC(=O)O)C(=N)N.O [creatine•H2O, creatine monohydrate]",breakdown in the stomach,[1],rapidly breaks down in the stomach to form creatinine
same,time of peak blood concentration post-ingestion,"5 hour sampling, experimental peak may not have been fully achieved",two hours
same,Integrated area under curve,5 hr sampling period post-ingestion,91.8 ± 5.5 mg · dL^−1 · 5 hrs^−1
same,Circulating concentrations of creatine,Pre ingestion,0.47 ± 0.35 mg/dL
same,concentration at 15 min,[4],40.8 ± 11.4 µg/mL
same,concentration at 30 min,[4],138 ± 18.6 µg/mL
same,concentration at 1 h,[4],208 ± 18.7 µg/mL
same,concentration at 2 h,[4],260 ± 29.6 µg/mL
same,concentration at 3 h,[4],242 ± 12.9 µg/mL
same,concentration at 4 h,[4],162 ± 11.3 µg/mL
same,concentration at 5 h,[4],102 ± 8.5 µg/mL
same,time by which blood creatine concentrations increased significantly,post-ingestion,≤ 15 min
same,peak blood concentration of creatine,within five hours post-ingestion,25.99 ± 2.96 mg/dL
same,skeletal muscle uptake (comparison of the two),[2]; 50 g creatine equivalents total (creatine HCl/PEG) vs 100 g total (creatine.H2O),similar
same,ATP,[2]; [5],22.7 ± 1.2 μM · gdw^−1
same,Creatine,[2]; [5],39.2 ± 2.7 μM · gdw^−1
same,Creatine · ATP^−1 (ratio),[2]; [5],2.01 ± 0.33 ratio
same,creatine phosphate,[2]; [5],75.6 ± 4.0 μM · gdw^−1
same,creatine phosphate/ATP^−1,[2]; [5],3.34 ± 0.01
same,ATP,"[2]; Pre, muscle biopsy",21.6 ± 1.4 μM · gdw^−1
same,Creatine,"[2]; Pre, muscle biopsy",23.0 ± 4.2 μM · gdw^−1
same,Creatine · ATP^−1 (ratio),"[2]; Pre, muscle biopsy",1.36 ± 0.36 ratio
same,creatine phosphate,"[2]; Pre, muscle biopsy",71.7 ± 4.8 μM · gdw^−1
same,creatine phosphate/ATP^−1,"[2]; Pre, muscle biopsy",3.33 ± 0.01
same,muscle concentrations of free creatine and total creatine by the end of the study,[2]; end of 5 days supplementation,significantly elevated
same,CELLULAR ATP (molar ratio),[2]; [6],5.07 ± 0.24 molar ratio
same,UPTAKE EFFICACY,[2]; [6],5.85 ± 1.85
same,free creatine,[2]; [6],39.2 ± 2.7 μM · gdw^−1
same,CELLULAR ATP (molar ratio),"[2]; pre-suppl., muscle biopsy",4.48 ± 0.30 molar ratio
same,free creatine,"[2]; pre-suppl., muscle biopsy",23.0 ± 4.2 μM · gdw^−1
same,A/G Ratio (ratio),[3]; Post,1.88 ± 0.06 ratio
same,ALT (SGPT),[3]; Post,20.9 ± 4.1
same,AST (SGOT),[3]; Post,23.3 ± 2.1 IU · L^−1
same,"Albumin, Serum",[3]; Post,4.5 ± 0.1 g/dL
same,Alk. Phosphatase,[3]; Post,85.4 ± 9.3 IU · L^−1
same,BUN,[3]; Post,17.9 ± 1.8 mg/dL
same,BUN/Creatinine (ratio),[3]; Post,16.3 ± 1.4 ratio
same,"Bilirubin, Total",[3]; Post,0.6 ± 0.1 mg/dL
same,"Calcium, Serum",[3]; Post,9.7 ± 0.1 mg/dL
same,Carbon Dioxide,[3]; Post,25.8 ± 0.7 mM · L^−1
same,"Chloride, Serum",[3]; Post,101.9 ± 0.7 mM · L^−1
same,"Creatinine, Serum",[3]; Post,1.09 ± 0.07 mg/dL
same,"Globulin, Serum",[3]; Post,2.4 ± 0.1 g/dL
same,"Glucose, Serum",[3]; Post,82.6 ± 4.3 mg/dL
same,"Iron, Serum",[3]; Post,103.3 ± 14.2 µg/dL
same,LDH,[3]; Post,157.9 ± 8.2 IU · L^−1
same,"Phosphorus, Serum",[3]; Post,4.3 ± 0.3 mg/dL
same,"Potassium, Serum",[3]; Post,4.4 ± 0.1 mM · L^−1
same,"Protein, Serum",[3]; Post,6.9 ± 0.1 g/dL
same,"Sodium, Serum",[3]; Post,138.6 ± 0.6 mM · L^−1
same,"Uric Acid, Serum",[3]; Post,4.7 ± 0.2 mg/dL
same,A/G Ratio (ratio),[3]; Pre,1.77 ± 0.06 ratio
same,ALT (SGPT),[3]; Pre,24.1 ± 4.5
same,AST (SGOT),[3]; Pre,25.3 ± 3.6 IU · L^−1
same,"Albumin, Serum",[3]; Pre,4.5 ± 0.1 g/dL
same,Alk. Phosphatase,[3]; Pre,78.7 ± 10.1 IU · L^−1
same,BUN,[3]; Pre,16.4 ± 1.4 mg/dL
same,BUN/Creatinine (ratio),[3]; Pre,17.8 ± 1.3 ratio
same,"Bilirubin, Total",[3]; Pre,0.6 ± 0.1 mg/dL
same,"Calcium, Serum",[3]; Pre,9.9 ± 0.1 mg/dL
same,Carbon Dioxide,[3]; Pre,26.7 ± 0.4 mM · L^−1
same,"Chloride, Serum",[3]; Pre,101.0 ± 0.5 mM · L^−1
same,"Creatinine, Serum",[3]; Pre,0.93 ± 0.04 mg/dL
same,"Globulin, Serum",[3]; Pre,2.6 ± 0.1 g/dL
same,"Glucose, Serum",[3]; Pre,86.7 ± 2.7 mg/dL
same,"Iron, Serum",[3]; Pre,88.8 ± 10.5 µg/dL
same,LDH,[3]; Pre,155.0 ± 6.0 IU · L^−1
same,"Phosphorus, Serum",[3]; Pre,4.3 ± 0.1 mg/dL
same,"Potassium, Serum",[3]; Pre,4.3 ± 0.1 mM · L^−1
same,"Protein, Serum",[3]; Pre,7.1 ± 0.1 g/dL
same,"Sodium, Serum",[3]; Pre,139.1 ± 0.5 mM · L^−1
same,"Uric Acid, Serum",[3]; Pre,5.6 ± 0.3 mg/dL
